Target: T1, Prostaglandin F (FP) Receptor (Homo sapiens, UniProt P43088)
T1 construct: host or cells: Ca2+ optimized hematopoietic cell lines (rat)
Test: Ca2+ assay (FLIPR) for the GPCR prostaglandin F (FP) receptor, agonist and antagonist mode
Type: cell-based
Protocol: Biological and Pharmacological Methods 1. Ca^2+ Assays for the GPCRs Motilin Receptor, Prostaglandin F (FP) Receptor, 5-hydroxytryptamine 2B (5-HT2B) Receptor, and Purinoreceptor P2Y1
Assays were performed using on a FLIPR^TETRA fluorometric imaging plate reader (Molecular Devices) with ScreenWorks Version 2 (Molecular Devices) as device operating and data analysis software.
Dose dependent agonist and antagonist activities were determined. Percentage activation and percentage inhibition values were determined.
Percentage activation was determined upon initial addition of the sample compounds followed by 10 minutes incubation at 25° C. Following compound incubation, reference agonists were added at EC80 to determine percentage inhibition.
Reference agonists were purchased from reputable commercial vendors and prepared according to each ligand's specifications. All handling of ligands were done to ensure proper control throughout the experiments.
Example compounds were weighed on a Microbalance (Mettler MX5) and dissolved in 100% DMSO to a final concentration of 2.5 mM and subsequently diluted into the assay buffer.
The Assay buffer was a supplemented HBSS (Hank's Balanced Salt Solution). HBSS was supplemented with 20 mM HEPES (4-(2-hydroxyethyl)-piperazin-1-ethansulfonic acid) and 2.5 mM Probenecid (Sigma P8761).
GPCR assays were performed using Ca^2+ optimized hematopoietic cell lines (rat) with cultures never exceeding 90% confluency. Cells were harvested and seeded (from cultures at less than 90% confluency) at 50000 cells/well for a 96-well plate (12500 cells/well for 384). After seeding, the assay plates were incubated for forty-five (45) minutes at room temperature. After room temperature incubation, the assay plates were incubated at 37° C. 5% CO2 for 24 hours prior to assaying.
All GPCR assays were performed using Fluo-8 Ca^2+ dye. Ca^2+ dye was prepared at 1× dye concentration in GPCR assay buffer. After 24 hours of incubation, cells were washed with GPCR assay buffer, and then Ca^2+-dye (100 μL/well) was added.
The plates were incubated for 90 minutes at 30° C. 5% CO2 prior to FLIPR assay.
Compound plates were prepared to add 50 μL/well during the agonist assay mode. During the FLIPR assay, 50 μL/well from the compound plate was diluted 3-fold into the existing 100 μL/well from the dye loading step. Therefore all compounds were prepared as 3× the final concentration desired in the assay.
After completion of the first single addition assay run, assay plate was removed from the FLIPR Tetra and placed at 25° C. for seven (7) minutes before antagonist assay.
Using the EC80 values determined during the agonist assay, all pre-incubated sample compound and reference antagonist (if applicable) wells were stimulated at the EC80 of the reference agonist. As reference ligands for the first three assays their obvious natural ligands motilin, prostaglandin F2α, and serotonin (5-HT, 5-Hydroxytryptamine) were used; and for the P2Y1 assay 2MeSATP (2-methyl-thio-adeno-sine 5′-triphosphate, i.e. (2R,3S,4R)-5-(6-amino-2-methylsulfanyl-purin-9-yl)-3,4-dihydroxy-tetrahydrofuran-2-yl]methyl (hydroxy-phosphonooxy-phosphoryl)hydrogen phosphate) was applied.
After the addition of the reference agonist fluorescence was monitored for 180 sec using FLIPR Tetra.
Data Analysis and Results:
From the FLIPR data, with negative control correction enabled, the maximum statistic for each well was exported and percentage activation relative to Emax control was calculated.

T1 sequence (P43088 whole entry): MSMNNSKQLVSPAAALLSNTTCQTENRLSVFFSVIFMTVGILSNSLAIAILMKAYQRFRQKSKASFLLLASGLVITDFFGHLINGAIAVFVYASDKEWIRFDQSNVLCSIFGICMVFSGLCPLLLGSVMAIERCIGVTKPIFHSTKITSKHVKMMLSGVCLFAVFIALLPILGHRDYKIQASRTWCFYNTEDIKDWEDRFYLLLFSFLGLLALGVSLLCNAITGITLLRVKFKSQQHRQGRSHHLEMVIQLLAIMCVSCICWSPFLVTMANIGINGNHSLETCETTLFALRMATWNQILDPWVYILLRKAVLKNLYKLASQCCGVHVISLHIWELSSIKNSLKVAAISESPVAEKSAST

| SMILES | inhibition at 10 µM | IC50 |
| --- | --- | --- |
| CN1CCC[C@H](NC(=O)Cc2ccc3ccccc3c2)C(=O)N2C[C@@H](NC(=O)Nc3ccc(N(C)C)cc3)C[C@H]2COc2cccc(c2)C1=O [Ex. 538, N-[(4S,6S,10S)-6-({[4-(dimethylamino)anilino]carbonyl}amino)-14-methyl-9,15-dioxo-2-oxa-8,14-diazatricyclo[14.3.1.0^4,8]icosa-1(20),16,18-trien-10-yl]-2-(2-naphthyl)acetamide] | 80% | – |
| CN1CCC[C@H](NC(=O)Cc2ccc(-c3ccccc3)cc2)C(=O)N2C[C@@H](NC(=O)Cc3ccc(-c4ccccc4)cc3)C[C@H]2COc2cccc(c2)C1=O [Ex. 551, 2-[1,1′-biphenyl]-4-yl-N-[(4S,6S,10S)-10-[(2-[1,1′-biphenyl]-4-ylacetyl)amino]-14-methyl-9,15-dioxo-2-oxa-8,14-diazatricyclo[14.3.1.0^4,8]icosa-1(20),16,18-trien-6-yl]acetamide] | 72% | – |
| CCCCCCCCCC(=O)N[C@H]1CCCN(C)C(=O)c2cccc(c2)OC[C@@H]2C[C@H](NC(=O)Cc3ccc4ccccc4c3)CN2C1=O [Ex. 504, N-[(4S,6S,10S)-14-methyl-6-{[2-(2-naphthyl)acetyl]amino}-9,15-dioxo-2-oxa-8,14-diazatricyclo[14.3.1.0^4,8]icosa-1(20),16,18-trien-10-yl]decanamide] | 62% | 441 nM |
| CN1CCC[C@H](NC(=O)CCCCCc2ccccc2)C(=O)N2C[C@@H](NC(=O)CCCCCOCc3ccccc3)C[C@H]2COc2cccc(c2)C1=O [Ex. 524, 6-(benzyloxy)-N-[(4S,6S,10S)-14-methyl-9,15-dioxo-10-[(6-phenylhexanoyl)amino]-2-oxa-8,14-diazatricyclo[14.3.1.0^4,8]icosa-1(20),16,18-trien-6-yl]hexanamide] | 85% | 1700 nM |
| CN1CCC[C@H](NC(=O)CCCCCc2ccccc2)C(=O)N2C[C@@H](NC(=O)Cc3ccc4ccccc4c3)C[C@H]2COc2cccc(c2)C1=O [Ex. 516, N-[(4S,6S,10S)-14-methyl-6-([2-(2-naphthyl)acetyl]amino}-9,15-dioxo-2-oxa-8,14-diazatricyclo[14.3.1.0^4,8]icosa-1(20),16,18-trien-10-yl]-6-phenylhexanamide] | 97% | 590 nM |
| CN1CCC[C@H](NC(=O)Cc2cccc3ccccc23)C(=O)N2C[C@@H](NC(=O)Cc3ccc(-c4ccccc4)cc3)C[C@H]2COc2cccc(c2)C1=O [Ex. 545, 2-[1,1′-biphenyl]-4-yl-N-[(4S,6S,10S)-14-methyl-10-{[2-(1-naphthyl)acetyl]amino}-9,15-dioxo-2-oxa-8,14-diazatricyclo[14.3.1.0^4,8]icosa-1(20),16,18-trien-6-yl]acetamide] | 80% | – |
| CN(C)c1cccc(NC(=O)N[C@H]2C[C@H]3COc4cccc(c4)C(=O)NCCC[C@H](NC(=O)Cc4ccc5ccccc5c4)C(=O)N3C2)c1 [Ex. 386, N-[(4S,6S,10S)-6-({[3-(dimethylamino)anilino]carbonyl}amino)-9,15-dioxo-2-oxa-8,14-diazatricyclo[14.3.1.0^4,8]icosa-1(20),16,18-trien-10-yl]-2-(2-naphthyl)acetamide] | 85% | 2700 nM |
| CN1CCC[C@H](NC(=O)CC(c2ccccc2)c2ccccc2)C(=O)N2C[C@@H](NC(=O)Cc3ccc4ccccc4c3)C[C@H]2COc2cccc(c2)C1=O [Ex. 523, N-[(4S,6S,10S)-14-methyl-6-{[2-(2-naphthyl)acetyl]amino}-9,15-dioxo-2-oxa-8,14-diazatricyclo[14.3.1.0^4,8]icosa-1(20),16,18-trien-10-yl]-3,3-diphenylpropanamide] | 92% | 860 nM |
| CN1CCC[C@H](NC(=O)Cc2ccc3ccccc3c2)C(=O)N2C[C@@H](NC(=O)Nc3cccc(N(C)C)c3)C[C@H]2COc2cccc(c2)C1=O [Ex. 508, N-[(4S,6S,10S)-6-({[3-(dimethylamino)anilino]carbonyl}amino)-14-methyl-9,15-dioxo-2-oxa-8,14-diazatricyclo[14.3.1.0^4,8]icosa-1(20),16,18-trien-10-yl]-2-(2-naphthyl)acetamide] | 93% | 430 nM |
| CN1CCC[C@H](NC(=O)CCCCOc2ccccc2)C(=O)N2C[C@@H](NC(=O)Cc3ccc4ccccc4c3)C[C@H]2COc2cccc(c2)C1=O [Ex. 517, N-[(4S,6S,10S)-14-methyl-6-{[2-(2-naphthyl)acetyl]amino}-9,15-dioxo-2-oxa-8,14-diazatricyclo[14.3.1.0^4,8]icosa-1(20),16,18-trien-10-yl]-5-phenoxypentanamide] | 98% | 650 nM |
| CN1CCC[C@H](NC(=O)Cc2cccc3ccccc23)C(=O)N2C[C@@H](NC(=O)C(c3ccccc3)c3ccccc3)C[C@H]2COc2cccc(c2)C1=O [Ex. 549, N-[(4S,6S,10S)-14-methyl-10-{[2-(1-naphthyl)acetyl]amino}-9,15-dioxo-2-oxa-8,14-diazatricyclo[14.3.1.0^4,8]icosa-1(20),16,18-trien-6-yl]-2,2-diphenylacetamide] | 62% | – |
| CN1CCC[C@H](NC(=O)CC(C)(C)C)C(=O)N2C[C@@H](NC(=O)Nc3cccc(N(C)C)c3)C[C@H]2COc2cccc(c2)C1=O [Ex. 552, N-[(4S,6S,10S)-6-({[3-(dimethylamino)anilino]carbonyl}amino)-14-methyl-9,15-dioxo-2-oxa-8,14-diazatricyclo[14.3.1.0^4,8]icosa-1(20),16,18-trien-10-yl]-3,3-dimethylbutanamide] | 71% | – |
| Cc1cccc(NC(=O)N[C@H]2CCCN(C)C(=O)c3cccc(c3)OC[C@@H]3C[C@H](NC(=O)Cc4ccc5ccccc5c4)CN3C2=O)c1 [Ex. 506, N-[(4S,6S,10S)-14-methyl-9,15-dioxo-10-[(3-toluidinocarbonyl)amino]-2-oxa-8,14-diazatricyclo[14.3.1.0^4,8]icosa-1(20),16,18-trien-6-yl]-2-(2-naphthyl)acetamide] | 55% | 2200 nM |
| CCCCCCCCCC(=O)N[C@H]1CCCN(C)C(=O)c2cccc(c2)OC[C@@H]2C[C@H](NC(=O)Cc3cccc(Oc4ccccc4)c3)CN2C1=O [Ex. 515, N-[(4S,6S,10S)-14-methyl-9,15-dioxo-6-{[2-(3-phenoxyphenyl)acetyl]amino}-2-oxa-8,14-diazatricyclo[14.3.1.0^4,8]icosa-1(20),16,18-trien-10-yl]decanamide] | 32% | 5100 nM |
| CN1CCC[C@H](NC(=O)Cc2ccc3ccccc3c2)C(=O)N2C[C@@H](NC(=O)Cc3ccc4ccccc4c3)C[C@H]2COc2cccc(c2)C1=O [Ex. 186, N-[(4S,6S,10S)-14-methyl-10-{[2-(2-naphthyl)acetyl]amino}-9,15-dioxo-2-oxa-8,14-diazatricyclo[14.3.1.0^4,8]icosa-1(20),16,18-trien-6-yl]-2-(2-naphthyl)acetamide] | 53% | 1200 nM |
| CCCCCCCCCC(=O)N[C@H]1CCCNC(=O)c2cccc(c2)OC[C@@H]2C[C@H](NC(=O)Cc3ccc4ccccc4c3)CN2C1=O [Ex. 391, N-[(4S,6S,10S)-6-{[2-(2-naphthyl)acetyl]amino}-9,15-dioxo-2-oxa-8,14-diazatricyclo[14.3.1.0^4,8]icosa-1(20),16,18-trien-10-yl]decanamide] | 93% | 250 nM |
| CN1CCC[C@H](NC(=O)Cc2ccc3ccccc3c2)C(=O)N2C[C@@H](NC(=O)Cc3cccc(Oc4ccccc4)c3)C[C@H]2COc2cccc(c2)C1=O [Ex. 541, N-[(4S,6S,10S)-14-methyl-9,15-dioxo-6-{[2-(3-phenoxyphenyl)acetyl]amino}-2-oxa-8,14-diazatricyclo[14.3.1.0^4,8]icosa-1(20),16,18-trien-10-yl]-2-(2-naphthyl)acetamide] | 65% | – |
| CCCCCCCCCC(=O)N[C@H]1CCCN(C)C(=O)c2cccc(c2)OC[C@@H]2C[C@H](NC(=O)C(c3ccccc3)c3ccccc3)CN2C1=O [Ex. 548, N-[(4S,6S,10S)-6-[(2,2-diphenylacetyl)amino]-14-methyl-9,15-dioxo-2-oxa-8,14-diazatricyclo[14.3.1.0^4,8]icosa-1(20),16,18-trien-10-yl]decanamide] | 69% | – |

— patent US9512139B2, “Conformationally constrained, fully synthetic macrocyclic compounds” (POLYPHOR AG, priority 2009, dated 2016)
